Results as given in US20240390282A1, “DRUG-LOADED LIPOSOMES AND USES THEREOF IN TREATING BIOFILM” (Yeda Research and Development Co. Ltd., priority 2022, published 2024).

How the values were obtained:
[1] = cited from earlier work
PA14-biofilms = assay: Bacterial viability in biofilms by LIVE/DEAD staining; assay type: cell-based, Pseudomonas aeruginosa; details: PA14 biofilm; free SMX 1.5 mg/mL
Protocol: Determination of bacterial viability in biofilms by LIVE/DEAD™ staining: PA14-biofilms were developed on 8 Well p-Slide (ibidi GmbH, Germany). 150 μL of the inoculum was incubated in a humidified incubator for 24 hours at 37° C. without shaking. After 24 hours, the fully formed biofilm was gently washed twice with PBS. 160 μL of liposomal suspension or BM2G medium was added to each well, and subsequently, the samples were incubated at 37° C. for 4 hours. Each well was then washed with PBS, and a second dose (170 μL) of antibacterial treatment was applied for 4 hours with incubation at 37° C. Subsequently, biofilm was washed with 180 μL of PBS buffer, and bacteria cells were stained using a BacLight™ Bacterial Viability Kit@ (Thermo Fisher Scientific™, USA). Live bacterial cells were stained with SYTO™ 9 dye (ex: 486/em: 501) and dead cells were stained with propidium iodide (PI) dye (λEx: 535/λEm: 617), with dyes mixed in 1:1 ratio. […] Later, wells were washed twice with PBS, and images of biofilm were acquired using confocal fluorescence microscopy. Cell viability quantification was performed using ImageJ software v1.52i (NIH, USA). Confocal pictures were acquired using a confocal laser scanning fluorescence microscope LSM700 (ZEISS, Germany). […] Images were recorded in brightfield mode and in confocal mode using 488 excitation and 561 excitation laser channels. […]

## O=c1oc2c(O)c(O)cc3c(=O)oc4c(O)c(O)cc1c4c23 [Ellagic acid (EA), Ellagic acid]
[1]
  LogP: 1.59-2.32
  pKa: 5.8

## Cc1cc(NS(=O)(=O)c2ccc(N)cc2)no1 [Sulfamethoxazole (SMX), Sulfamethoxazole]
PA14-biofilms
  dead cells (red loci) in words: significant increase in the number of red loci
